Results on two compounds are retold here after BindingDB's records for doi:10.7270/Q2DN43GX (The Scripps Research Institute Molecular Screening Center, 2007).

A value given as a limit tells only on which side of the number the result lay.

This assay concerns the target T1, Protein Rev [8-24] (Human immunodeficiency virus 1, UniProt P05866).
T1 construct: 8-24
The experiment in a line: inhibitors of Rev protein–RRE RNA complex – biochemical, protein-RNA interaction, dose response (AID 842).

`CC[n+]1c(CC=Nc2ccccc2)oc2ccccc21` [3-Ethyl-2-(2-phenylamino-vinyl)-benzooxazol-3-ium] returned an IC50 of 5.66 µM. In the case of `Cc1[nH]n(-c2ccccc2)c(=O)c1N=Nc1ccc(N)cc1` [4-(4-aminophenyl)azo-5-methyl-2-phenyl-4H-pyrazol-3-one], the IC50 is over 79.4 µM.
